Measurements from patent publication US10160747B2, “Compounds and methods for kinase modulation, and indications therefor” (Plexxikon Inc., priority 2016, dated 2018).

Experiments:
Type in all cases: biochemical
[1] = target: T1, FLT3-ITD (Homo sapiens, UniProt P36888); test: FLT3-ITD recombinant enzyme kinase assay (AlphaScreen); details: 8 pt; read-out: FLT3_ITD 8 pt: IC50
T1 sequence (P36888 1-993): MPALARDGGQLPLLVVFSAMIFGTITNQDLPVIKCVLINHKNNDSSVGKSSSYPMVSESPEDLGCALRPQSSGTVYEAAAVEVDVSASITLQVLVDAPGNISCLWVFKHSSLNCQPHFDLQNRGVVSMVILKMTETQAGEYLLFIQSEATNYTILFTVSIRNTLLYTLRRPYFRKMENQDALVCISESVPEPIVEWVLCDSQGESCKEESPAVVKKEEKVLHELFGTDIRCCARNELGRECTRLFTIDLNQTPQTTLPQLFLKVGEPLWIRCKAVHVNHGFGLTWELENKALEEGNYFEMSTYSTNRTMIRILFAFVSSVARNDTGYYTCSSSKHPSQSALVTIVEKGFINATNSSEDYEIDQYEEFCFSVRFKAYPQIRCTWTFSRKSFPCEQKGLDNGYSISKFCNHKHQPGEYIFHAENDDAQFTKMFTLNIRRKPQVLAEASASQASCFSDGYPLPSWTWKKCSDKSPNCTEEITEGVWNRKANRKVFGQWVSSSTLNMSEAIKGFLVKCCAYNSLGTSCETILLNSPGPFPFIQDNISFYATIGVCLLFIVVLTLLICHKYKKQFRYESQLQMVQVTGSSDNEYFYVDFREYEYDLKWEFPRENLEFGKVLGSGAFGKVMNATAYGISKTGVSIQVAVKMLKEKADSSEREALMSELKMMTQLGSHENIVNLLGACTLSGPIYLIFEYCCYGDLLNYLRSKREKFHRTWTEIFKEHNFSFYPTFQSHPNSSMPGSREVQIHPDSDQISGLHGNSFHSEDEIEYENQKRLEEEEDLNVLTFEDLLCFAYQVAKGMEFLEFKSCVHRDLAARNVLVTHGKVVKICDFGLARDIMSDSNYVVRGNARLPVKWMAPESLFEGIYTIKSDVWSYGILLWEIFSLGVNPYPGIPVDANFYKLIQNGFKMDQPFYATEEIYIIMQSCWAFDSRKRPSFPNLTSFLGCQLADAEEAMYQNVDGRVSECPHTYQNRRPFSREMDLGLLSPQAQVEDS
How it was run: (§1)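 Enzyme plus biotinylated poly(Glu4-Tyr) substrate (30 nM) mixed with compound, then ATP added. Donor beads went in for 20 min at room temperature, then PY20 acceptor beads for 60 min. AlphaScreen read; ATP was 10 μM for FLT3-ITD/D835Y and 100 μM for c-KIT.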

[2] = target: T2, c-KIT (Homo sapiens, UniProt P10721); test: c-KIT recombinant enzyme kinase assay (AlphaScreen); details: 100 ATP, 8 pt
T2 construct: purchased Millipore 14-559K
How it was run: as §1

[3] = target: T3, FLT3-D835Y (Homo sapiens, UniProt P36888, D835Y); test: FLT3-D835Y recombinant enzyme kinase assay (AlphaScreen); details: 8 pt, GMean
T3 construct: purchased Invitrogen PV3967
T3 sequence (P36888 27-993 D835Y): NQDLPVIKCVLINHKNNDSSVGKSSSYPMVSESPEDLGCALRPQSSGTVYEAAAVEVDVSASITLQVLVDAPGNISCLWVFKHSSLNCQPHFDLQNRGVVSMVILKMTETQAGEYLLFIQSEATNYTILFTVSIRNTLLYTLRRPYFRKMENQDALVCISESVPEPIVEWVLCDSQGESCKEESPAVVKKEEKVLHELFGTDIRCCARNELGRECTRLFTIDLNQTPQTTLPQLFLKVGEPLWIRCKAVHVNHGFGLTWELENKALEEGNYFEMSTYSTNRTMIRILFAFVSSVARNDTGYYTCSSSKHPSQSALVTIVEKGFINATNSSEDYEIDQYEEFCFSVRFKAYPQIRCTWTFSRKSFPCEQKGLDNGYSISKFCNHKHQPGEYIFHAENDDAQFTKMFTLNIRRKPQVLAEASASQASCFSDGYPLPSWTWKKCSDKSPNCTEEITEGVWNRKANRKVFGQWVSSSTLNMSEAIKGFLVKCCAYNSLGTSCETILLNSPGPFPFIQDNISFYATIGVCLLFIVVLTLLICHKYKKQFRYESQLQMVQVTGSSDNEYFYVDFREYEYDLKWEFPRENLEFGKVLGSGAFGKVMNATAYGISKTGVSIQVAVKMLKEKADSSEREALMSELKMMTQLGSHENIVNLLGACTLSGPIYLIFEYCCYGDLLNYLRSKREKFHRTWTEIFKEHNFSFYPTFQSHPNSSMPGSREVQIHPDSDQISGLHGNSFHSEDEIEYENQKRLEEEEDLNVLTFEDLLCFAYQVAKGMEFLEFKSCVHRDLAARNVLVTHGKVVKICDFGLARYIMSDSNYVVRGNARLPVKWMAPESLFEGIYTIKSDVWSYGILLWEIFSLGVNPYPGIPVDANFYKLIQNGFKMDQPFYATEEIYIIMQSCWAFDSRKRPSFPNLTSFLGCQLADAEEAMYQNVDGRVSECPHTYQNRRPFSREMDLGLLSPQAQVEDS
How it was run: as §1

T2 sequence (P10721 26-976): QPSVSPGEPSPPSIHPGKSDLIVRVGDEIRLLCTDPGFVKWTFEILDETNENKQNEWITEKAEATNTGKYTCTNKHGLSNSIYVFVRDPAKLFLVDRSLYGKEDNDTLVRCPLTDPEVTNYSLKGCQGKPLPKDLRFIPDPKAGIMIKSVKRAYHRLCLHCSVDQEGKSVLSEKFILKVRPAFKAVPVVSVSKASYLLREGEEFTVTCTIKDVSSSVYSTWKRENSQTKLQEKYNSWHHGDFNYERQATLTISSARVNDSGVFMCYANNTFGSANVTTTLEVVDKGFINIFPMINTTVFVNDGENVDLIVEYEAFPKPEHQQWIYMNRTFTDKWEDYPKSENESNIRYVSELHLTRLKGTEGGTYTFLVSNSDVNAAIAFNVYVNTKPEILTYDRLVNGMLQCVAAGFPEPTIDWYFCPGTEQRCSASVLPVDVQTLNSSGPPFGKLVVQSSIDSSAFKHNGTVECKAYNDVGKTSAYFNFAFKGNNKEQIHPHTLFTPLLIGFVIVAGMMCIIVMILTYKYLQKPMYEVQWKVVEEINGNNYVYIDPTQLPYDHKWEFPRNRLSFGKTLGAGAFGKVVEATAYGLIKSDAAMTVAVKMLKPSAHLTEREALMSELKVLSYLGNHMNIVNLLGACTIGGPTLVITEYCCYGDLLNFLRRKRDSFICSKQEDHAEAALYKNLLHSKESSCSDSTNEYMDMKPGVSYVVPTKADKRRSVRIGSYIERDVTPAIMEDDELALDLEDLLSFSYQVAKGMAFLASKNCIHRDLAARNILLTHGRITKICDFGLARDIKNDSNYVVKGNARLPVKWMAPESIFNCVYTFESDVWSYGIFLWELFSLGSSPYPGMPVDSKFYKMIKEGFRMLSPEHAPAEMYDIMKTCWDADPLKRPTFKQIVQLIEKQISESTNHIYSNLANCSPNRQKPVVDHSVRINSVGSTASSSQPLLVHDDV

Structure (SMILES) | IC50 [1] | IC50 [2] | IC50 [3]
CCn1cc(Nc2ncc(-c3ccc(CC(=O)Nc4cnc(C)c(C(F)(F)F)c4)c(F)c3)cn2)cn1 [Compound P-0261, 2-[4-[2-[(1-ethylpyrazol-4-yl)amino]pyrimidin-5-yl]-2-fluoro-phenyl]-N-[6-methyl-5-(trifluoromethyl)-3-pyridyl]acetamide] | 0.0001 to 10 µM | 0.0001 to 10 µM | 0.0001 to 10 µM
COc1ncc(NC(=O)Cc2ccc(-c3cnc4[nH]c(C#CC(C)(C)O)cc4c3)cc2)cc1C(F)(F)F [Compound P-0214, 2-(4-(2-(3-hydroxy-3-methylbut-1-yn-1-yl)-1H-pyrrolo[2,3-b]pyridin-5-yl)phenyl)-N-(6-methoxy-5-(trifluoromethyl)pyridin-3-yl)acetamide] | 0.0001 to 10 µM | 0.0001 to 10 µM | 0.0001 to 10 µM
COc1ncc(NC(=O)Cc2ccc(-c3cnc4[nH]c(C#Cc5cncn5C)cc4c3)cc2)cc1C(F)(F)F [Compound P-0227, N-[6-methoxy-5-(trifluoromethyl)-3-pyridyl]-2-[4-[2-[2-(3-methylimidazol-4-yl)ethynyl]-1H-pyrrolo[2,3-b]pyridin-5-yl]phenyl]acetamide] | 0.0001 to 10 µM | – | 0.0001 to 10 µM
COc1ncc(NC(=O)Cc2ccc(-c3cnc4[nH]c(-c5ccnc(C#N)c5)cc4c3)c(F)c2)cc1C(F)(F)F [Compound P-0016, 2-[4-[2-(2-cyano-4-pyridyl)-1H-pyrrolo[2,3-b]pyridin-5-yl]-3-fluoro-phenyl]-N-[6-methoxy-5-(trifluoromethyl)-3-pyridyl]acetamide] | – | – | 0.0001 to 10 µM
COc1ncc(NC(=O)Cc2ccc(-c3cnc(Nc4cnn(C)c4)nc3)c(F)c2)cc1C(F)(F)F [Compound P-0206, 2-[3-fluoro-4-[2-[(1-methylpyrazol-4-yl)amino]pyrimidin-5-yl]phenyl]-N-[6-methoxy-5-(trifluoromethyl)-3-pyridyl]acetamide] | 0.0001 to 10 µM | – | 0.0001 to 10 µM
COc1ncc(NC(=O)Cc2ccc(-c3cnc4[nH]c(-c5ccnc(C#N)c5)cc4c3)cc2F)cc1C(F)(F)F [Compound P-0013, 2-[4-[2-(2-cyano-4-pyridyl)-1H-pyrrolo[2,3-b]pyridin-5-yl]-2-fluoro-phenyl]-N-[6-methoxy-5-(trifluoromethyl)-3-pyridyl]acetamide] | – | 0.0001 to 10 µM | 0.0001 to 10 µM
CCn1cc(Nc2ncc(-c3cc(F)c(CC(=O)Nc4cnc(C)c(C(F)(F)F)c4)cc3F)cn2)cn1 [Compound P-0249, 2-[4-[2-[(1-ethylpyrazol-4-yl)amino]pyrimidin-5-yl]-2,5-difluoro-phenyl]-N-[6-methyl-5-(trifluoromethyl)-3-pyridyl]acetamide] | – | 0.0001 to 10 µM | 0.0001 to 10 µM
COc1ncc(NC(=O)Cc2ccc(-c3cnc4[nH]c(-c5ccc(C#N)nc5)cc4c3)cc2F)cc1C(F)(F)F [Compound P-0011, 2-[4-[2-(6-cyano-3-pyridyl)-1H-pyrrolo[2,3-b]pyridin-5-yl]-2-fluoro-phenyl]-N-[6-methoxy-5-(trifluoromethyl)-3-pyridyl]acetamide] | – | – | 0.0001 to 10 µM
COc1ncc(NC(=O)Cc2ccc(-c3cnc4[nH]c(-c5cnn(C(F)F)c5)cc4c3)cc2F)cc1C(F)(F)F [Compound P-0015, 2-[4-[2-[1-(difluoromethyl)pyrazol-4-yl]-1H-pyrrolo[2,3-b]pyridin-5-yl]-2-fluoro-phenyl]-N-[6-methoxy-5-(trifluoromethyl)-3-pyridyl]acetamide] | – | – | 0.0001 to 10 µM
COc1ncc(NC(=O)Cc2ccc(-c3cnc4[nH]nc(C5CC5)c4c3)cc2F)cc1C(F)(F)F [Compound P-0262, 2-[4-(3-cyclopropyl-1H-pyrazolo[3,4-b]pyridin-5-yl)-2-fluoro-phenyl]-N-[6-methoxy-5-(trifluoromethyl)-3-pyridyl]acetamide] | – | 0.0001 to 10 µM | 0.0001 to 10 µM
CCn1cc(Nc2ncc(-c3cc(F)c(CC(=O)Nc4cnc(OC)c(C(F)(F)F)c4)cc3F)cn2)cn1 [Compound P-0247, 2-[4-[2-[(1-ethylpyrazol-4-yl)amino]pyrimidin-5-yl]-2,5-difluoro-phenyl]-N-[6-methoxy-5-(trifluoromethyl)-3-pyridyl]acetamide] | – | 0.0001 to 10 µM | 0.0001 to 10 µM
COc1ncc(NC(=O)Cc2cc(F)c(-c3cnc(Nc4cnn(C)c4)nc3)cc2F)cc1C(F)(F)F [Compound P-0208, 2-[2,5-difluoro-4-[2-[(1-methylpyrazol-4-yl)amino]pyrimidin-5-yl]phenyl]-N-[6-methoxy-5-(trifluoromethyl)-3-pyridyl]acetamide] | – | 0.0001 to 10 µM | 0.0001 to 10 µM
COc1ncc(NC(=O)Cc2ccc(-c3cnc4[nH]c(-c5ccc(C#N)nc5)cc4c3)c(F)c2)cc1C(F)(F)F [Compound P-0014, 2-[4-[2-(6-cyano-3-pyridyl)-1H-pyrrolo[2,3-b]pyridin-5-yl]-3-fluoro-phenyl]-N-[6-methoxy-5-(trifluoromethyl)-3-pyridyl]acetamide] | – | – | 0.0001 to 10 µM
COc1ncc(NC(=O)Cc2ccc(-c3cnc4[nH]nc(C5CC5)c4c3)cc2)cc1C(F)(F)F [Compound P-0263, 2-[4-(3-cyclopropyl-1H-pyrazolo[3,4-b]pyridin-5-yl)phenyl]-N-[6-methoxy-5-(trifluoromethyl)-3-pyridyl]acetamide] | – | 0.0001 to 10 µM | 0.0001 to 10 µM
CCn1cc(Nc2ncc(-c3ccc(CC(=O)Nc4cnc(OC)c(C(F)(F)F)c4)cc3F)cn2)cn1 [Compound P-0246, 2-[4-[2-[(1-ethylpyrazol-4-yl)amino]pyrimidin-5-yl]-3-fluoro-phenyl]-N-[6-methoxy-5-(trifluoromethyl)-3-pyridyl]acetamide] | – | 0.0001 to 10 µM | 0.0001 to 10 µM
CCn1cc(Nc2ncc(-c3ccc(CC(=O)Nc4cnc(C)c(C(F)(F)F)c4)cc3F)cn2)cn1 [Compound P-0248, 2-[4-[2-[(1-ethylpyrazol-4-yl)amino]pyrimidin-5-yl]-3-fluoro-phenyl]-N-[6-methyl-5-(trifluoromethyl)-3-pyridyl]acetamide] | – | 0.0001 to 10 µM | 0.0001 to 10 µM
COc1cc(-c2cc3cc(-c4ccc(CC(=O)Nc5cncc(C(F)(F)F)c5)cc4F)cnc3[nH]2)ccn1 [Compound P-0200, 2-(3-fluoro-4-(2-(2-methoxypyridin-4-yl)-1H-pyrrolo[2,3-b]pyridin-5-yl)phenyl)-N-(5-(trifluoromethyl)pyridin-3-yl)acetamide] | 0.0001 to 10 µM | – | –
COc1ncc(NC(=O)Cc2ccc(-c3cnc4[nH]c(C#CC(C)(C)C)cc4c3)cc2)cc1C(F)(F)F [Compound P-0219, 2-[4-[2-(3,3-dimethylbut-1-ynyl)-1H-pyrrolo[2,3-b]pyridin-5-yl]phenyl]-N-[6-methoxy-5-(trifluoromethyl)-3-pyridyl]acetamide] | 0.0001 to 10 µM | – | –
